Source: patent US6914045B2, “Glycopeptide antibiotics” (Wyeth Holdings Corporation, priority 2001, dated 2005)
Converted amounts (≈) assume the structure as drawn.

Assays:
Assay in all cases: in vitro antibacterial evaluation, MIC by broth dilution
Format in all cases: cell-based
[1] = system: Streptococcus sp.; conditions: broth dilution, 18 hours at 35° C.
Method in brief: (§1)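 Inoculum 5×10^5 CFU/mL; concentrations 64 to 0.06 μg/mL; MIC defined as lowest inhibitory level. Conducted by broth dilution under NCCLS guidelines.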

[2] = system: Staphylococcus sp.; conditions: broth dilution, 18 hours at 35° C.; for MIC Staphylococcus aureus (GC 1131): strain GC 1131
Method in brief: as §1

[3] = system: Escherichia coli
Method in brief: as §1

[4] = system: Enterococcus sp.; conditions: broth dilution, 18 hours at 35° C.
Method in brief: as §1

- MIC Streptococcus agalactiae (GC 4564) ([1]; Streptococcus agalactiae (GC 4564)): 4 mg/L (≈ 2.83 µM)
- MIC Streptococcus pneumoniae (ATCC 6301) ([1]; Streptococcus pneumoniae (ATCC 6301)): 2 mg/L (≈ 1.42 µM)
- MIC Streptococcus pneumoniae (GC 1894) ([1]; Streptococcus pneumoniae (GC 1894)): 1 mg/L (≈ 0.708 µM)
- MIC Streptococcus pneumoniae (GC 4565) ([1]; Streptococcus pneumoniae (GC 4565)): 2 mg/L (≈ 1.42 µM)
- MIC Streptococcus pyogenes (GC 4563) ([1]; Streptococcus pyogenes (GC 4563)): 4 mg/L (≈ 2.83 µM)
- MIC Streptococcus pneumoniae (ATCC 6301) ([1]; strain ATCC 6301): 2 mg/L (≈ 1.42 µM)
- MIC Streptococcus pneumoniae (GC 1894) ([1]; strain GC 1894): 1 mg/L (≈ 0.708 µM)
- MIC Streptococcus pyogenes (GC 4563) ([1]; strain GC 4563): 4 mg/L (≈ 2.83 µM)
- MIC Streptococcus agalactiae (GC 4564) ([1]; strain GC 4564): 4 mg/L (≈ 2.83 µM)
- MIC Streptococcus pneumoniae (GC 4565) ([1]; strain GC 4565): 2 mg/L (≈ 1.42 µM)
- MIC Staphylococcus aureus (GC 1131) ([2]; inoculum 5×10^5 CFU/mL): 16 mg/L (≈ 11.3 µM)
- MIC Staphylococcus aureus (ATCC 29213) ([2]; strain ATCC 29213): 16 mg/L (≈ 11.3 µM)
- MIC Staphylococcus aureus (GC 1131) [2]: 16 mg/L (≈ 11.3 µM)
- MIC Staphylococcus aureus (GC 3051) ([2]; strain GC 3051): 16 mg/L (≈ 11.3 µM)
- MIC Staphylococcus aureus (GC 3053) ([2]; strain GC 3053): 16 mg/L (≈ 11.3 µM)
- MIC Staphylococcus aureus (GC 4541) ([2]; strain GC 4541): 8 mg/L (≈ 5.66 µM)
- MIC Staphylococcus aureus (GC 4542) ([2]; strain GC 4542): 16 mg/L (≈ 11.3 µM)
- MIC Staphylococcus aureus-SMITH (GC 4543) ([2]; strain GC 4543): 8 mg/L (≈ 5.66 µM)
- MIC Staphylococcus aureus (GC 4544) ([2]; strain GC 4544): 16 mg/L (≈ 11.3 µM)
- MIC Staphylococcus aureus (GC 4545) ([2]; strain GC 4545): 16 mg/L (≈ 11.3 µM)
- MIC Coagulase Negative Staphylococcus (GC 4547) ([2]; strain GC 4547): 8 mg/L (≈ 5.66 µM)
- MIC Coagulase Negative Staphylococcus (GC 4548) ([2]; strain GC 4548): 4 mg/L (≈ 2.83 µM)
- MIC Coagulase Negative Staphylococcus (GC 4549) ([2]; strain GC 4549): 8 mg/L (≈ 5.66 µM)
- MIC Coagulase Negative Staphylococcus (GC 4551) ([2]; strain GC 4551): 8 mg/L (≈ 5.66 µM)
- MIC Coagulase Negative Staphylococcus (GC 6257) ([2]; strain GC 6257): 4 mg/L (≈ 2.83 µM)
- MIC Staphylococcus aureus-SMITH (GC 4543) ([2]; strain SMITH GC 4543): 8 mg/L (≈ 5.66 µM)
- MIC Escherichia coli (ATCC 25922) ([3]; strain ATCC 25922, 18 hours at 35° C.): >64 mg/L
- MIC Escherichia coli (GC 4559) ([3]; strain GC 4559, 18 hours at 35° C.): >64 mg/L
- MIC Escherichia coli (GC 4560) ([3]; strain GC 4560, 18 hours at 35° C.): 4 mg/L (≈ 2.83 µM)
- MIC Enterococcus avium (GC 4558) ([4]; Enterococcus avium (GC 4558)): 32 mg/L (≈ 22.6 µM)
- MIC Enterococcus faecalis (ATCC 29212) ([4]; Enterococcus faecalis (ATCC 29212)): 32 mg/L (≈ 22.6 µM)
- MIC Enterococcus faecalis (GC 2242) ([4]; Enterococcus faecalis (GC 2242)): 32 mg/L (≈ 22.6 µM)
- MIC Enterococcus faecalis (GC 2691) ([4]; Enterococcus faecalis (GC 2691)): 32 mg/L (≈ 22.6 µM)
- MIC Enterococcus faecalis (GC 3059) ([4]; Enterococcus faecalis (GC 3059)): 64 mg/L (≈ 45.3 µM)
- MIC Enterococcus faecalis (GC 4552) ([4]; Enterococcus faecalis (GC 4552)): 32 mg/L (≈ 22.6 µM)
- MIC Enterococcus faecalis (GC 4553) ([4]; Enterococcus faecalis (GC 4553)): 32 mg/L (≈ 22.6 µM)
- MIC Enterococcus faecalis (GC 4554) ([4]; Enterococcus faecalis (GC 4554)): 64 mg/L (≈ 45.3 µM)
- MIC Enterococcus faecalis (GC 6189) ([4]; Enterococcus faecalis (GC 6189)): 32 mg/L (≈ 22.6 µM)
- MIC Enterococcus faecium (GC 2243) ([4]; Enterococcus faecium (GC 2243)): 64 mg/L (≈ 45.3 µM)
- MIC Enterococcus faecium (GC 4556) ([4]; Enterococcus faecium (GC 4556)): 32 mg/L (≈ 22.6 µM)
- MIC Enterococcus faecium (GC 4557) ([4]; Enterococcus faecium (GC 4557)): 8 mg/L (≈ 5.66 µM)
- MIC Enterococcus faecalis (ATCC 29212) ([4]; strain ATCC 29212): 32 mg/L (≈ 22.6 µM)
- MIC Enterococcus faecalis (GC 2242) ([4]; strain GC 2242): 32 mg/L (≈ 22.6 µM)
- MIC Enterococcus faecium (GC 2243) ([4]; strain GC 2243): 64 mg/L (≈ 45.3 µM)
- MIC Enterococcus faecalis (GC 2691) ([4]; strain GC 2691): 32 mg/L (≈ 22.6 µM)
- MIC Enterococcus faecalis (GC 3059) ([4]; strain GC 3059): 64 mg/L (≈ 45.3 µM)
- MIC Enterococcus faecalis (GC 4552) ([4]; strain GC 4552): 32 mg/L (≈ 22.6 µM)
- MIC Enterococcus faecalis (GC 4553) ([4]; strain GC 4553): 32 mg/L (≈ 22.6 µM)
- MIC Enterococcus faecalis (GC 4554) ([4]; strain GC 4554): 64 mg/L (≈ 45.3 µM)
- MIC Enterococcus faecium (GC 4556) ([4]; strain GC 4556): 32 mg/L (≈ 22.6 µM)
- MIC Enterococcus faecium (GC 4557) ([4]; strain GC 4557): 8 mg/L (≈ 5.66 µM)
- MIC Enterococcus avium (GC 4558) ([4]; strain GC 4558): 32 mg/L (≈ 22.6 µM)
- MIC Enterococcus faecalis (GC 6189) ([4]; strain GC 6189): 32 mg/L (≈ 22.6 µM)
Compound: COc1cccc(C2OC3C(OC4C(CO)OC(Oc5ccc(CC6NC(=O)C(C(C)c7ccccc7)NC(=O)CNC(=O)C(CO)NC(=O)C(C(O)C7CNC(=N)N7C7OC(CO)C(O)C(O)C7O)NC(=O)C(C(O)C7CNC(=N)N7)NC6=O)cc5)C(O)C4O)OC(CO)C(O)C3O2)c1 (single isomer, unassigned) [Example 137b, Cyclo[glycyl-β-methylphenylalanyl-O-[4-O-[2,3-O-(3-methoxybenzylidene)hexopyranosyl]-hexopyranosyl]tyrosyl-3-(2-iminoimidazolidin-4-yl)seryl-3-(3-hexopyranosyl-2-iminoimidazolidin-4-yl)serylseryl]]
- MIC Staphylococcus haemolyticus (GC 4546) ([2]; strain GC 4546): 8 mg/L (≈ 5.66 µM)
